Reference: patent US20050014849A1, “Antifungal phenylethylene” (priority 2001, published 2005)
≈ marks a conversion by molar mass, not a printed value. Entries after “also recorded” stand apart in the source; their conditions may differ.

What was measured:
T. inkin (ATCC 18020) = assay: Frequency of occurrence of spontaneous mutants; format: cell-based, Trichosporon inkin; conditions: four times the broth macrodilution MIC
Method: (§1) Determination of the frequency of occurrence of spontaneous mutants was performed as previously described. Overnight cultures of C neoformans (ATCC 90112), C. albicans (ATCC 90028) and Trichosporon inkin (ATCC 18020) were diluted to an OD530 nm=0.3. 0.1 ml of each preparation was spread onto SDA plates containing four or eight times the broth macrodilution MIC of TMPN. The starting inoculum for each organism was also diluted and plated onto drug-free SDA plates for determination of cfu/ml. After a 48 h incubation at the appropriate temperature (see Fungal Strains section above), the number of colonies on drug-supplemented SDA was counted. The frequency of occurrence of spontaneous mutants was calculated by dividing the number of colonies on drug-containing plates by the number of colonies in the inoculum. When no colonies were visualized on drug-containing plates, the calculation was (<) 1 colony divided by the number of colonies in the inoculum.

T. ovoides ATCC 90040 = assay: Broth macrodilution MIC/MFC; format: cell-based, Trichosporon ovoides
Method: (§2) TMPN was screened against yeasts by the broth macrodilution assay according to the NCCLS [7]. Yeasts were suspended and diluted as recommended to yield final inocula ranging from 0.5-2.5×10^3 cfu/ml. Tests were performed in sterile 12 by 75 mm plastic tubes containing two-fold dilutions of TMPN in 0.165 M morpholinepropanesulfonic acid buffered RPMI 1640 medium (pH 7.0). One tube was again left drug free (but contained an equivalent volume of DMSO) for a turbidity control. Tubes were incubated without agitation at the appropriate temperature (see Fungal Strains section above). MICs were determined after 72 h for Cryptococcus and after 48 h for other yeast genera. The MIC was defined as the lowest concentration of TMPN that inhibited all visible growth of the test organism (optically clear).
(§3) Minimum fungicidal concentrations (MFCs) were determined by subculturing 0.1 ml from each tube with no visible growth in the MIC broth macrodilution series onto the appropriate drug-free plates (see Fungal Strains section above).

[1] = system: C. neoformans (ATCC 90112); assay: Frequency of occurrence of spontaneous mutants; format: cell-based, Cryptococcus neoformans; conditions: four times the broth macrodilution MIC
Method: as §1

[2] = system: 132 reference strains and clinical isolates; assay: Broth macrodilution MIC/MFC, all fungi tested (summary); format: cell-based
Method: as §2
Susceptibility testing of filamentous fungi was also conducted. Broth macrodilution susceptibility testing of P. lilacinus, Rhizopus spp. and Aspergillus spp. was performed in accordance with a proposed standardized procedure with slight modification. To induce conidium and sporangiospore formation, fungi were grown on PDA slants at 35° C. for 6 days (P. lilacinus, Rhizopus spp., all Aspergillus species except A. nidulans) or 3 days (A. nidulans). Fungal slants were covered with sterile 0.85% NaCl (P. lilacinus, Rhizopus spp., all Aspergillus species except A. nidulans) or 0.05% Tween 80 (A. nidulans), and suspensions were made by gently probing the colonies with the tip of a sterile Pasteur pipette. The resulting mixture of hyphal fragments and conidia or sporangiospores was withdrawn and transferred to a sterile clear microcentrifuge tube, and heavy particles were allowed to settle for 10 min. The upper homogenous suspension was transferred to a sterile microcentrifuge tube, vortexed for 15 s, adjusted spectrophotometrically, and diluted in sterile 0.165 M MOPS-buffered RPMI medium, pH 7.0, to yield final inocula ranging from 0.5-2.5×10^3 cfu/ml. Susceptibility to TMPN was then determined by broth macrodilution as described above for yeast isolates. MICs were read after 48 h The MIC was defined as the lowest concentration of TMPN that inhibited all visible growth of the test organism (optically clear).
as §3
(§4) Possible host effects were also evaluated. Broth macrodilution assays were performed with RPMI medium prepared at pH 5, pH 6, and pH 7, and in RPMI medium with and without 50% normal human serum (Lampire Biological Labs). The pH experiments were performed twice on separate days.

C. albicans (ATCC 90028) = assay: Video-enhanced DIC microscopy of yeast/hyphal morphology; format: cell-based, Candida albicans
Source text: The mechanism of action of TMPN was investigated microscopically, Candida albicans (ATCC 90028) cultures were exposed to one quarter or one half times the broth macrodilution MIC of TMPN in DMSO, or an equivalent concentration of DMSO for controls, until late-log phase. Cells were examined using an Axioscope microscope (Carl Zeiss, Thornwood, N.Y.) equipped with standard differential interference contrast (DIC) using a Plan-Neofluar 100×/1.3 (oil immersion) objective. The microscope was coupled to a C24007-07 (imaging tube camera type) video camera, via a 4×extension tube (Carl Zeiss), and an analog control unit (Hammamatsu Photonic Systems Corp., Bridgewater, N.J.). Real-time digital contrast enhancement was done with an Argus 10 Image Processor (Hammamatsu). Single frame images were digitized directly or from videotaped sequences using a Sony UP-5600MD video/digital printer (Sony Electronics, Inc., Montvale, N.J.) and prepared for printing in Photoshop 5.0 (Adobe Systems, Mountain View, Calif.). Final images were printed with a NP-1600M Medical Color Printer (Codonics, Inc., Middleburg Heights, Ohio).

C. neoformans ATCC 90112 = assay: Broth macrodilution MIC/MFC; format: cell-based, Cryptococcus neoformans; conditions: for MFC / MIC: Cryptococcus neoformans
Method: as §2, §3, §4

P388 leukemia = assay: Sulforhodamine B cancer cell growth inhibition; format: cell-based, murine; conditions: Mus musculus, 48 h, read-out: GI50 (inhibition of 50% of cell growth)
Method: An investigation TMPN's in vitro antineoplastic activity was also conducted. This investigation included an analysis of both cell growth, and of the effects of TMPN upon tubulin. Inhibition of cancer cell growth was assessed using the Sulforhodamine B assay as previously described. Briefly, cells in 5% fetal calf serum/RPMI-1640 were inoculated into 96 well plates, incubated 24 h and 10-fold dilutions of TMPN added. After a 48 h incubation, plates were fixed with trichloroacetic acid, washed, stained with Sulforhodamine B and read with an automated microtiter plate reader.

[3] = ATCC90112, Cryptococcus neoformans ATCC 90112, 20 μg/ml bovine serum albumin
[4] = ATCC90112, Cryptococcus neoformans ATCC 90112, 40 μg/ml bovine serum albumin
[5] = ATCC90112, Cryptococcus neoformans ATCC 90112, no bovine serum albumin
[6] = ATCC90112, Cryptococcus neoformans ATCC 90112, no serum
[7] = ATCC90112, pH 5, Cryptococcus neoformans ATCC 90112, pH 5
[8] = ATCC90112, pH 5, Cryptococcus neoformans ATCC 90112, pH 5, repeat experiment
[9] = ATCC90112, pH 6, Cryptococcus neoformans ATCC 90112, pH 6
[10] = ATCC90112, pH 6, Cryptococcus neoformans ATCC 90112, pH 6, repeat experiment
[11] = ATCC90112, pH 7, Cryptococcus neoformans ATCC 90112, pH 7
[12] = ATCC90112, pH 7, Cryptococcus neoformans ATCC 90112, pH 7, repeat experiment

Question: For `COc1cc(C=C[N+](=O)[O-])cc(OC)c1OC` [TMPN, 1-(3′,4′,5′-trimethoxyphenyl)-2-nitro-ethylene], which “frequency of occurrence of single-step resistant mutants” value (T. inkin (ATCC 18020)) is on record?
Answer: ≤ 10^−6

Question: And the “MFC Range” value (T. ovoides ATCC 90040)?
Answer: 32 µg/mL (≈ 134 µM)

Question: What about the “MIC Range” value (T. ovoides ATCC 90040) of the same compound?
Answer: 16 µg/mL (≈ 66.9 µM)

Question: And the “frequency of occurrence of single-step resistant mutants” value [1]?
Answer: ≤ 10^−6

Question: And the “antifungal spectrum in broth macrodilution assays” value [2]?
Answer: broad-spectrum antifungal activity

Question: What about the “activity in the presence of serum” value ([2]; 50% human serum) of the same compound?
Answer: not active against all species

Question: What about the fungicidal action ([2]; 132 reference strains and clinical isolates, incl. those resistant to fluconazole, ketoconazole, amphotericin B or flucytosine) of the same compound?
Answer: fungicidal for the majority

Question: What about the “effect of media pH on activity (MICs and MFCs)” value ([2]; pH 5, pH 6 and pH 7) of the same compound?
Answer: unaffected; also recorded: identical or differed by no more than a single 2-fold dilution

Question: And the “cells with hyphal extensions” value (C. albicans (ATCC 90028); one half times the TMPN MIC)?
Answer: not observed

Question: What about the “growth morphology observed (FIG. 4 panel b)” value (C. albicans (ATCC 90028); one half times the TMPN MIC) of the same compound?
Answer: only yeast growth

Question: What about the growth rate (C. albicans (ATCC 90028); one half times the TMPN MIC) of the same compound?
Answer: same rate as controls

Question: What about the hyphae seen (C. albicans (ATCC 90028); one quarter times the TMPN MIC) of the same compound?
Answer: rarely seen

Question: What about the length of hyphae (C. albicans (ATCC 90028); one quarter times the TMPN MIC) of the same compound?
Answer: < 20 μm

Question: What about the yeast/hyphae switching (C. albicans (ATCC 90028); sub-MIC exposure) of the same compound?
Answer: did not exhibit yeast/hyphae switching

Question: And the “MFC Range” value (C. neoformans ATCC 90112; C. neoformans ATCC 90112)?
Answer: 4 µg/mL (≈ 16.7 µM)

Question: What about the “MIC Range” value (C. neoformans ATCC 90112; C. neoformans ATCC 90112) of the same compound?
Answer: 2 µg/mL (≈ 8.36 µM)

Question: What about the MFC (C. neoformans ATCC 90112; [3]) of the same compound?
Answer: 4 µg/mL (≈ 16.7 µM)

Question: What about the MIC (C. neoformans ATCC 90112; [3]) of the same compound?
Answer: 4 µg/mL (≈ 16.7 µM)

Question: What about the MFC (C. neoformans ATCC 90112; [4]) of the same compound?
Answer: 4 µg/mL (≈ 16.7 µM)

Question: What about the MIC (C. neoformans ATCC 90112; [4]) of the same compound?
Answer: 4 µg/mL (≈ 16.7 µM)

Question: What about the MIC (C. neoformans ATCC 90112; ATCC90112, Cryptococcus neoformans ATCC 90112, 50% human serum) of the same compound?
Answer: > 64 µg/mL

Question: And the MFC (C. neoformans ATCC 90112; [5])?
Answer: 4 µg/mL (≈ 16.7 µM)

Question: What about the MIC (C. neoformans ATCC 90112; [5]) of the same compound?
Answer: 2 µg/mL (≈ 8.36 µM)

Question: And the MFC (C. neoformans ATCC 90112; [6])?
Answer: 4 µg/mL (≈ 16.7 µM)

Question: What about the MIC (C. neoformans ATCC 90112; [6]) of the same compound?
Answer: 2 µg/mL (≈ 8.36 µM)

Question: What about the MFC (C. neoformans ATCC 90112; [7]) of the same compound?
Answer: 4 µg/mL (≈ 16.7 µM)

Question: What about the MIC (C. neoformans ATCC 90112; [7]) of the same compound?
Answer: 2 µg/mL (≈ 8.36 µM)

Question: And the MFC (C. neoformans ATCC 90112; [8])?
Answer: 2 µg/mL (≈ 8.36 µM)

Question: And the MIC (C. neoformans ATCC 90112; [8])?
Answer: 1 µg/mL (≈ 4.18 µM)

Question: What about the MFC (C. neoformans ATCC 90112; [9]) of the same compound?
Answer: 4 µg/mL (≈ 16.7 µM)

Question: What about the MIC (C. neoformans ATCC 90112; [9]) of the same compound?
Answer: 4 µg/mL (≈ 16.7 µM)

Question: What about the MFC (C. neoformans ATCC 90112; [10]) of the same compound?
Answer: 4 µg/mL (≈ 16.7 µM)

Question: And the MIC (C. neoformans ATCC 90112; [10])?
Answer: 4 µg/mL (≈ 16.7 µM)

Question: And the MFC (C. neoformans ATCC 90112; [11])?
Answer: 4 µg/mL (≈ 16.7 µM)

Question: And the MIC (C. neoformans ATCC 90112; [11])?
Answer: 2 µg/mL (≈ 8.36 µM)

Question: What about the MFC (C. neoformans ATCC 90112; [12]) of the same compound?
Answer: 4 µg/mL (≈ 16.7 µM)

Question: And the MIC (C. neoformans ATCC 90112; [12])?
Answer: 2 µg/mL (≈ 8.36 µM)

Question: What about the GI50 (P388 leukemia) of the same compound?
Answer: 4.15 µg/mL (≈ 17.3 µM)
